According to patent US6737383B1, “Herbicidal oxadiazolidines” (priority 1999, dated 2004):

Key:
[1] = system: bedstraw; experiment: Test B pre/postemergence bedstraw; format: in vivo, Galium aparine; settings: for Bedstraw plant response rating: 10 is complete control
Procedure, shortened: (§1)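 Response is a visual 0-to-10 score relative to untreated plants, where 0 means no effect and 10 means complete control, taken twelve to sixteen days after application. Treatments went onto soil at planting and onto foliage of 1- to 4-leaf plants, using a surfactant-containing non-phytotoxic solvent.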

[2] = system: blackgrass; experiment: Test B pre/postemergence blackgrass; format: in vivo, Alopecurus myosuroides
Procedure, shortened: as §1

[3] = system: surinam grass; experiment: Test B pre/postemergence surinam grass; format: in vivo, Brachiaria decumbens
Procedure, shortened: as §1

[4] = system: cocklebur; experiment: Test B pre/postemergence cocklebur; format: in vivo, Xanthium strumarium
Procedure, shortened: as §1

[5] = system: corn; experiment: Test B pre/postemergence corn; format: in vivo, Zea mays
Procedure, shortened: as §1

[6] = system: crabgrass; experiment: Test B pre/postemergence crabgrass; format: in vivo, Digitaria sanguinalis
Procedure, shortened: as §1

[7] = system: giant foxtail; experiment: Test B pre/postemergence giant foxtail; format: in vivo, Setaria faberii
Procedure, shortened: as §1

[8] = system: morningglory; experiment: Test B pre/postemergence morningglory; format: in vivo, Ipomoea hederacea
Procedure, shortened: as §1

[9] = system: pigweed; experiment: Test B pre/postemergence pigweed; format: in vivo, Amaranthus retroflexus
Procedure, shortened: as §1

[10] = system: rape; experiment: Test B pre/postemergence rape; format: in vivo, Brassica napus
Procedure, shortened: as §1

[11] = system: soybean; experiment: Test B pre/postemergence soybean; format: in vivo, Glycine max
Procedure, shortened: as §1

[12] = system: sugar beet; experiment: Test B pre/postemergence sugar beet; format: in vivo, Beta vulgaris
Procedure, shortened: as §1

[13] = system: velvetleaf; experiment: Test B pre/postemergence velvetleaf; format: in vivo, Abutilon theophrasti
Procedure, shortened: as §1

[14] = system: wheat; experiment: Test B pre/postemergence wheat; format: in vivo, Triticum aestivum
Procedure, shortened: as §1

[15] = system: wild oat; experiment: Test B pre/postemergence wild oat; format: in vivo, Avena fatua
Procedure, shortened: as §1

[16] = system: purple nutsedge; experiment: Test B pre/postemergence purple nutsedge; format: in vivo, Cyperus rotundus
Procedure, shortened: as §1

[17] = Preemergence, Rate 62 g/ha, scale of 0 to 10 where 0 is no effect and 10 is complete control
[18] = Postemergence, Rate 62 g/ha, scale of 0 to 10, 0 is no effect, 10 is complete control
[19] = Postemergence, Rate 125 g/ha, scale 0 to 10, 0 is no effect, 10 is complete control
[20] = Postemergence, Rate 500 g/ha, scale 0 to 10, 0 is no effect, 10 is complete control
[21] = Preemergence, Rate 125 g/ha, scale 0 to 10, 0 is no effect, 10 is complete control
[22] = Preemergence, Rate 500 g/ha, scale of 0 to 10 where 0 is no effect and 10 is complete control
[23] = Rate 250 g/ha, Postemergence, scale of 0 to 10 where 0 is no effect and 10 is complete control

CCC=CCn1c(=O)on(C(=O)N(c2ccc(F)cc2F)C(C)C)c1=O [Compound 523]
7: Blackgrass plant response rating (0 to 10 scale) ([2]; Preemergence, Rate 250 g/ha) | Blackgrass plant response rating [2, 22] | Plant response rating, B. signalgrass [3, 20] | Rape plant response rating [10, 22] | Sugarbeets plant response rating (0 to 10 scale) ([12]; Preemergence, Rate 250 g/ha)
3: Plant response rating, Blackgrass [2, 23] | Crabgrass plant response rating [6, 18] | Morningglory plant response rating [8, 19] | Plant response rating, Redroot pigweed [9, 20] | Plant response rating, Redroot pigweed [9, 23] | Plant response rating, Sugarbeets [12, 17] | Velvetleaf plant response rating [13, 19] | Plant response rating, Velvetleaf [13, 23]
6: Plant response rating, Crabgrass [6, 23] | Plant response rating, Giant foxtail [7, 20]
4: Plant response rating, Blackgrass [2, 20] | Blackgrass plant response rating [2, 21] | Plant response rating, B. signalgrass [3, 17] | Plant response rating, Giant foxtail [7, 23] | Plant response rating, Morningglory [8, 20] | Morningglory plant response rating [8, 21] | Plant response rating, Morningglory [8, 23] | Rape plant response rating (0 to 10 scale) ([10]; Preemergence, Rate 250 g/ha) | Soybean plant response rating [11, 18] | Sugarbeets plant response rating [12, 21] | Plant response rating, Velvetleaf [13, 20] | Wheat plant response rating [14, 22]
8: B. signalgrass plant response rating [3, 21] | Crabgrass plant response rating [6, 19]
2: Plant response rating, Blackgrass [2, 17] | Plant response rating, B. signalgrass [3, 23] | Cocklebur plant response rating [4, 19] | Plant response rating, Cocklebur [4, 20] | Plant response rating, Cocklebur [4, 23] | Plant response rating, Corn [5, 20] | Plant response rating, Corn [5, 23] | Giant foxtail plant response rating [7, 18] | Giant foxtail plant response rating [7, 19] | Morningglory plant response rating [8, 18] | Plant response rating, Morningglory [8, 17] | Redroot pigweed plant response rating [9, 19] | Plant response rating, Redroot pigweed [9, 17] | Plant response rating, Rape [10, 20] | Plant response rating, Rape [10, 23] | Velvetleaf plant response rating [13, 21] | Velvetleaf plant response rating (0 to 10 scale) ([13]; Preemergence, Rate 250 g/ha) | Plant response rating, Wheat [14, 20] | Plant response rating, Wild oats [15, 20]
9: B. signalgrass plant response rating (0 to 10 scale, 0 is no effect, 10 is complete control) ([3]; Preemergence, Rate 250 g/ha) | Corn plant response rating [5, 22] | Plant response rating, Crabgrass [6, 17] | Redroot pigweed plant response rating [9, 21] | Redroot pigweed plant response rating (0 to 10 scale) ([9]; Preemergence, Rate 250 g/ha) | Redroot pigweed plant response rating [9, 22] | Sugarbeets plant response rating [12, 22]
10: Plant response rating, Crabgrass [6, 20] | Crabgrass plant response rating [6, 21] | Crabgrass plant response rating (0 to 10 scale) ([6]; Preemergence, Rate 250 g/ha) | Crabgrass plant response rating [6, 22] | Plant response rating, Giant foxtail [7, 17] | Giant foxtail plant response rating [7, 21] | Giant foxtail plant response rating (0 to 10 scale) ([7]; Preemergence, Rate 250 g/ha) | Giant foxtail plant response rating [7, 22]
0: Bedstraw plant response rating ([1]; Postemergence, Rate 62 g/ha, scale of 0 to 10, 0 is no effect) | Bedstraw plant response rating ([1]; Postemergence, Rate 125 g/ha, scale 0 to 10, 0 is no effect) | Plant response rating, Bedstraw [1, 17] | Bedstraw plant response rating ([1]; Preemergence, Rate 125 g/ha, scale 0 to 10, 0 is no effect) | Bedstraw plant response rating (0 to 10 scale) ([1]; Preemergence, Rate 250 g/ha) | Bedstraw plant response rating ([1]; Preemergence, Rate 500 g/ha, scale 0 to 10, 0 is no effect) | Blackgrass plant response rating [2, 18] | Blackgrass plant response rating [2, 19] | B. signalgrass plant response rating [3, 18] | B. signalgrass plant response rating [3, 19] | Cocklebur plant response rating [4, 18] | Plant response rating, Cocklebur [4, 17] | Cocklebur plant response rating [4, 21] | Cocklebur plant response rating (0 to 10 scale) ([4]; Preemergence, Rate 250 g/ha) | Cocklebur plant response rating [4, 22] | Corn plant response rating [5, 18] | Corn plant response rating [5, 19] | Plant response rating, Corn [5, 17] | Corn plant response rating [5, 21] | Corn plant response rating (0 to 10 scale) ([5]; Preemergence, Rate 250 g/ha) | Morningglory plant response rating (0 to 10 scale) ([8]; Preemergence, Rate 250 g/ha) | Morningglory plant response rating [8, 22] | Redroot pigweed plant response rating [9, 18] | Rape plant response rating [10, 18] | Rape plant response rating [10, 19] | Plant response rating, Rape [10, 17] | Rape plant response rating [10, 21] | Plant response rating, Soybean [11, 17] | Soybean plant response rating [11, 21] | Soybean plant response rating (0 to 10 scale) ([11]; Preemergence, Rate 250 g/ha) | Soybean plant response rating [11, 22] | Sugarbeets plant response rating [12, 18] | Sugarbeets plant response rating [12, 19] | Plant response rating, Sugarbeets [12, 20] | Plant response rating, Sugarbeets [12, 23] | Velvetleaf plant response rating [13, 18] | Plant response rating, Velvetleaf [13, 17] | Wheat plant response rating [14, 18] | Wheat plant response rating [14, 19] | Plant response rating, Wheat [14, 17] | Wheat plant response rating [14, 21] | Wheat plant response rating (0 to 10 scale) ([14]; Preemergence, Rate 250 g/ha) | Plant response rating, Wheat [14, 23] | Wild oats plant response rating [15, 18] | Wild oats plant response rating [15, 19] | Plant response rating, Wild oats [15, 17] | Wild oats plant response rating [15, 21] | Wild oats plant response rating (0 to 10 scale) ([15]; Preemergence, Rate 250 g/ha) | Wild oats plant response rating [15, 22] | Plant response rating, Wild oats [15, 23] | Nutsedge plant response rating [16, 18] | Nutsedge plant response rating [16, 19] | Plant response rating, Nutsedge [16, 20] | Plant response rating, Nutsedge [16, 17] | Nutsedge plant response rating [16, 21] | Nutsedge plant response rating (0 to 10 scale) ([16]; Preemergence, Rate 250 g/ha) | Nutsedge plant response rating [16, 22] | Plant response rating, Nutsedge [16, 23]
5: B. signalgrass plant response rating ([3]; Preemergence, Rate 500 g/ha, scale 0 to 10, 0 is no effect, 10 is complete control) | Soybean plant response rating [11, 19] | Plant response rating, Soybean [11, 20] | Plant response rating, Soybean [11, 23] | Velvetleaf plant response rating [13, 22]
